Assay results taken from patent US9670162B2, “Mitochondrial aldehyde dehyrogenase-2 modulators and methods of use thereof” (The Board of Trustees of the Leland Stanford Junior …, priority 2013, dated 2017).

Legend:
human ALDH2 wild type = target: T1, human ALDH2 wild type (Homo sapiens, UniProt P05091); experiment: ALDH2 enzymatic assay (NADH at 340 nm), recombinant wild type enzyme; type: biochemical; design: key: −: no activation or inhibition; +: activation less than control 1; ++: activation similar to control 1, within 10%; +++: activation more than control 1 and less than control (compound 161); ++++: activation similar to compound 161, within 10%; conditions: activation relative to benchmarks control 1 and compound 161
T1 construct: His-tag (pTrcHis vector) (N); made in house; host or cells: E. coli BL21
T1 sequence (P05091 18-517): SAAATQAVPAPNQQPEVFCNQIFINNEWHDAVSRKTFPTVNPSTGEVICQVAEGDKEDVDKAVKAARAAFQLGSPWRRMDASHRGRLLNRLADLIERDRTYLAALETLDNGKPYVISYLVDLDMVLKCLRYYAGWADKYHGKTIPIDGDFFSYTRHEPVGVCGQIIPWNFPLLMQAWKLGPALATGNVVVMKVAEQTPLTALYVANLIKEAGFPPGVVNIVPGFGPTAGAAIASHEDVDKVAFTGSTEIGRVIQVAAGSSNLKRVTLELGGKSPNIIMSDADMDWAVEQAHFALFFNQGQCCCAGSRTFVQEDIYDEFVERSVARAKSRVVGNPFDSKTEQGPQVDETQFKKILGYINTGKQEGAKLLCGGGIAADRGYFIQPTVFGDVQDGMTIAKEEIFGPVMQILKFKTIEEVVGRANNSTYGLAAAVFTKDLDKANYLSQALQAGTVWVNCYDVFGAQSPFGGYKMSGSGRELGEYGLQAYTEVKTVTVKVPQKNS

LogD (pH 7.4) = type: physicochemical
Description: (§1) In vitro ADMET of compounds of the present disclosure was carried out according to known methods in the art. Below are data for certain compounds of the present disclosure.

HLM stability T1/2 = type: in vitro ADME; conditions: human, liver microsomes; read-out: metabolism (HLM, t1/2)
Description: as §1

Plasma stability, rat = type: in vitro ADME
Description: as §1

CYP1A2 = target: T2, CYP1A2 (Homo sapiens, UniProt P05177); experiment: Cyp inhibition 1A2; type: in vitro ADME; design: inhibition: dose or concentration left out as unconfirmed
T2 sequence (P05177 1-516): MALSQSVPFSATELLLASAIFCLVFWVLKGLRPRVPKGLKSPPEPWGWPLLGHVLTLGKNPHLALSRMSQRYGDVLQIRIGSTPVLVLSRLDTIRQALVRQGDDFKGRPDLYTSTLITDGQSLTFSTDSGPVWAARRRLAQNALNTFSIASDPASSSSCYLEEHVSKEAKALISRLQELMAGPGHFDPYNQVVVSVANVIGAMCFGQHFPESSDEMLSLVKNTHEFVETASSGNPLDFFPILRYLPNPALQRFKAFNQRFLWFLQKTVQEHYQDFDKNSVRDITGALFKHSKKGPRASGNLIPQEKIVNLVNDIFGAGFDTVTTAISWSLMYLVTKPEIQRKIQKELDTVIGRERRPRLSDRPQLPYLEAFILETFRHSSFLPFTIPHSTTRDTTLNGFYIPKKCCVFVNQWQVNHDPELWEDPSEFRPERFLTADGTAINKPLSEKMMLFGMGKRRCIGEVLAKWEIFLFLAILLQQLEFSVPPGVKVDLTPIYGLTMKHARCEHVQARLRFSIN
Description: as §1

[1] = Plasma protein binding (PPB), human; type: in vitro ADME
Description: as §1

[2] = Plasma protein binding (PPB), rat; type: in vitro ADME
Description: as §1

hERG channel = hERG channel (Homo sapiens, UniProt Q12809); experiment: hERG channel patch-clamp; type: cell-based
[3] = tested on: ALDH-2 (or mutant) enzyme; experiment: Rate of 4-HNE oxidation by ALDH-2; type: biochemical; conditions: 4-HNE substrate, O.D. 340 nm, 25° C.
Description: The effect of compound 161 on the rate of 4-HNE oxidation by ALDH-2 was carried out by methods known in the art. To each well of a 96-well flat bottom UV plate, the following reagents were sequentially added by pipetting:
50 μl of 100 mM sodium pyrophosphate decahydrate (NaPPi, pH 8.4)
25 μl of 10 mM nicotinamide adenine dinucleotide hydrate (NAD)
1 μl of 20 mM testing compound DMSO solution
The plate was then put on a shaker to mix the cocktails in wells. After 5 minutes of mixing, 1 ul of ALDH-2 (or mutant) enzyme was added to each well with the reagent cocktail. DMSO was used as blank control in the plate. The plate was again put on shaker for another 5 minutes of shaking to enhance bonding between testing compounds and the enzyme.
1 ul of 30 mM 4-HNE in water was then added to each of wells containing the above reaction mixture. After a short vigorous mixing, the UV plate was fed into a plate reader to measure kinetic optical density (O.D.) at wavelength 340 nm at 25° C. over 4 minutes. Each point of measurement was taken at a time interval of 40 seconds.

hERG channel, sequence (Q12809 whole entry): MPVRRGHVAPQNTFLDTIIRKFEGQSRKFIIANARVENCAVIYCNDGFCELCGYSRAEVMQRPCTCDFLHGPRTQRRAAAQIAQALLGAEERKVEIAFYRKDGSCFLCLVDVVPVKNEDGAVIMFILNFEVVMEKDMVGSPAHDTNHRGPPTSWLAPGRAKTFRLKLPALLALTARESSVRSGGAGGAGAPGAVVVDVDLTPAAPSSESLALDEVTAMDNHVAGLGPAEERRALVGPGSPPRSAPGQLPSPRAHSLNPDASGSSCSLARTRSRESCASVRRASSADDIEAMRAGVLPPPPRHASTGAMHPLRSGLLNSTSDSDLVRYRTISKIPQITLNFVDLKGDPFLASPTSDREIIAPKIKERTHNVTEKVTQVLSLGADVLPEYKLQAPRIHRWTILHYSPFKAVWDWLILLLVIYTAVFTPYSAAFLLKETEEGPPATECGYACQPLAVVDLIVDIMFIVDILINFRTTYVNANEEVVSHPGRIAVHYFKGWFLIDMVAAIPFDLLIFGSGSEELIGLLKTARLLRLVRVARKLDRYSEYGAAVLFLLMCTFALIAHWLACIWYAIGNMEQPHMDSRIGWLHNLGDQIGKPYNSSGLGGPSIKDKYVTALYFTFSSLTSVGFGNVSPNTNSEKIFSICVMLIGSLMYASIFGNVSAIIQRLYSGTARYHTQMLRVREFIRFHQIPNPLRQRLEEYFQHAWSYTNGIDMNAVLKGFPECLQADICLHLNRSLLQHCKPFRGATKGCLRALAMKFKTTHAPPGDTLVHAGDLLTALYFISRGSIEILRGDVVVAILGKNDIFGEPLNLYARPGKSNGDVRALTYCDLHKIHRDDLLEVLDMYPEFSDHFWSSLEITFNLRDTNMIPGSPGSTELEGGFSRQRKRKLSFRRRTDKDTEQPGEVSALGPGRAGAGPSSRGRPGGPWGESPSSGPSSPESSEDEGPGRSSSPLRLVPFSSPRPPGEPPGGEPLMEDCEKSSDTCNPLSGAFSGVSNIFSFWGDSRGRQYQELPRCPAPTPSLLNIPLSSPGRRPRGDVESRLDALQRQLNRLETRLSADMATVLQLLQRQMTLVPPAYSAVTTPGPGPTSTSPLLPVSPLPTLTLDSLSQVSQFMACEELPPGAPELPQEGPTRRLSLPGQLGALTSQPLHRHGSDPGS

ALDH2 (wild-type) (human ALDH2 wild type): ++++ | logD (LogD (pH 7.4)): 3 | half-life (HLM stability T1/2): 12.4 min | Plasma stability Rat (Plasma stability, rat): 100% | inhibition (CYP1A2): 35% | inhibition at 10 µM (CYP1A2; 10 μM): 35.2% | fraction unbound [1]: 0.007 | fraction unbound [2]: 0.039 | rate of 4-HNE oxidation by ALDH-2 [3]: accelerate the rate of 4-HNE oxidation
Structure (SMILES): COc1ccc(CNC(=O)c2c(Cl)ccnc2OCC2CC2)cc1F [Compound 161]
IC50 (hERG channel): > 30 µM
